Key:
Format in all cases: in vivo
[1] = system: windgrass (Apera spica-venti); assay: Test B postemergence plant response
Method in brief: (§1)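 Plants grown in peat/vermiculite medium were sprayed postemergence at 2–18 cm height (1- to 4-leaf stage). After 13–15 days in the greenhouse, response was rated visually against untreated controls on a 0–100 scale (0 no effect, 100 complete control).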

[2] = system: chickweed (Stellaria media); assay: Test B postemergence plant response
Method in brief: as §1

[3] = system: winter barley (Hordeum vulgare); assay: Test B postemergence plant response
Method in brief: as §1

[4] = system: canarygrass (Phalaris minor); assay: Test B postemergence plant response
Method in brief: as §1

[5] = system: pigweed (Amaranthus retroflexus); assay: Test B pre-/postemergence plant response
Method in brief: (§2)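 Seeds were sown in loam soil/sand blend and treated preemergence with compound in non-phytotoxic solvent mixture containing surfactant; postemergence sprays, same formulation, went onto plants 2 to 18 cm (1- to 4-leaf stage) in peat-based planting medium. Greenhouse 13 to 15 days, then visual rating versus untreated controls, 0 (no effect) to 100 (complete control).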

soybean (Glycine max) = assay: Test B pre-/postemergence plant response
Method in brief: as §2

[6] = system: yellow nutsedge (Cyperus esculentus); assay: Test B pre-/postemergence plant response
Method in brief: as §2

[7] = system: goosegrass (Eleusine indica); assay: Test B pre-/postemergence plant response
Method in brief: as §2

[8] = system: green foxtail (Setaria viridis); assay: Test B pre-/postemergence plant response
Method in brief: as §2

[9] = system: giant foxtail (Setaria faberii); assay: Test B pre-/postemergence plant response
Method in brief: as §2

[10] = system: lambsquarters (Chenopodium album); assay: Test B pre-/postemergence plant response
Method in brief: as §2

corn (Zea mays) = assay: Test B pre-/postemergence plant response
Method in brief: as §2

[11] = system: velvetleaf (Abutilon theophrasti); assay: Test B pre-/postemergence plant response
Method in brief: as §2

[12] = system: johnsongrass (Sorghum halepense); assay: Test B pre-/postemergence plant response
Method in brief: as §2

[13] = 31 g ai/ha, postemergence, scale 0 to 100, 0 is no effect, 100 is complete control
[14] = 62 g ai/ha, postemergence, 0 is no effect, 100 is complete control, 13 to 15 days
[15] = Postemergence, 250 g ai/ha, scale 0 to 100 (0 no effect, 100 complete control)
[16] = Postemergence, 125 g ai/ha, visual rating after 13 to 15 days, scale 0 (no effect) to 100 (complete control)
[17] = Postemergence, 31 g ai/ha, 0 to 100 scale (0 no effect, 100 complete control)
[18] = Postemergence, 62 g ai/ha, scale 0 to 100 (0 no effect, 100 complete control)
[19] = Postemergence, 125 g ai/ha, scale 0 (no effect) to 100 (complete control), 13 to 15 days
[20] = Postemergence, 250 g ai/ha, scale 0 to 100 (0 no effect, 100 complete control), 13 to 15 days
[21] = 16 g ai/ha, Postemergence, 0 to 100 scale
[22] = Postemergence, 125 g ai/ha, scale 0 to 100 (0 no effect, 100 complete control)

CC(C)n1c(-c2ccccc2)ncc(C(=O)C2=C(O)CCCC2=O)c1=O [Compound 95]
80: Plant response rating, Lambsquarters [10, 13]
5: Plant response rating, Johnsongrass [12, 13]
85: Chickweed plant response rating (0 to 100 scale) [2, 14] | Plant response rating, Pigweed [5, 13] | Plant response rating, Nutsedge, Yellow [6, 15] | Plant response rating, Foxtail, Giant [9, 15] | Plant response rating, Velvetleaf [11, 13]
65: Plant response rating, Goosegrass [7, 13] | Foxtail, Giant plant response rating (0 to 100 scale) [9, 14]
35: Plant response rating, Corn (corn (Zea mays); [15])
75: Plant response rating, Chickweed [2, 13] | Plant response rating, Nutsedge, Yellow [6, 13] | Nutsedge, Yellow plant response rating (0 to 100 scale) [6, 14] | Goosegrass plant response rating (0 to 100 scale) [7, 14]
45: Plant response rating, Foxtail, Giant [9, 13] | Plant response rating, Johnsongrass [12, 15]
25: Plant response rating, Corn (corn (Zea mays); [16])
0: Plant response rating, Windgrass [1, 13] | Windgrass plant response rating (0 to 100 scale) [1, 14] | Plant response rating, Windgrass [1, 15] | Plant response rating, Barley [3, 13] | Barley plant response rating (0 to 100 scale) [3, 14] | Plant response rating, Barley [3, 16] | Plant response rating, Barley [3, 15] | Plant response rating, Canarygrass [4, 13] | Canarygrass plant response rating (0 to 100 scale) [4, 14] | Plant response rating, Canarygrass [4, 16] | Plant response rating, Canarygrass [4, 15] | Plant response rating, Corn (corn (Zea mays); [13]) | Corn plant response rating (0 to 100 scale) (corn (Zea mays); [14])
98: Plant response rating, Chickweed [2, 16] | Pigweed plant response rating (0 to 100 scale) [5, 14] | Soybean plant response rating (0 to 100 scale) (soybean (Glycine max); [14]) | Plant response rating, Soybean (soybean (Glycine max); [15]) | Lambsquarters plant response rating (0 to 100 scale) [10, 14]
20: Plant response rating, Foxtail, Green [8, 13]
100: Plant response rating, Chickweed [2, 15] | Plant response rating, Pigweed [5, 15] | Plant response rating, Lambsquarters [10, 15] | Plant response rating, Velvetleaf [11, 15]
95: Plant response rating, Soybean (soybean (Glycine max); [13]) | Velvetleaf plant response rating (0 to 100 scale) [11, 14]
90: Plant response rating, Goosegrass [7, 15] | Plant response rating, Foxtail, Green [8, 15]
50: Foxtail, Green plant response rating (0 to 100 scale) [8, 14]
10: Johnsongrass plant response rating (0 to 100 scale) [12, 14]

COCCCn1c(-c2cccc(F)c2)ncc(C(=O)C2=C(O)C3CCC(C3)C2=O)c1=O (stereo not drawn) [Compound 238]
80: Plant response rating, Chickweed [2, 17] | Plant response rating, Corn (corn (Zea mays); [17]) | Plant response rating, Corn (corn (Zea mays); [18]) | Plant response rating, Velvetleaf [11, 17]
100: Plant response rating, Chickweed [2, 19] | Plant response rating, Chickweed [2, 20] | Plant response rating, Pigweed [5, 17] | Plant response rating, Pigweed [5, 18] | Plant response rating, Pigweed [5, 19] | Plant response rating, Pigweed [5, 20] | Plant response rating, Soybean (soybean (Glycine max); [18]) | Plant response rating, Soybean (soybean (Glycine max); [19]) | Plant response rating, Soybean (soybean (Glycine max); [20]) | Plant response rating, Foxtail, Giant [9, 17] | Plant response rating, Foxtail, Giant [9, 18] | Plant response rating, Foxtail, Giant [9, 19] | Plant response rating, Foxtail, Giant [9, 20] | Plant response rating, Lambsquarters [10, 17] | Plant response rating, Lambsquarters [10, 18] | Plant response rating, Lambsquarters [10, 19] | Plant response rating, Lambsquarters [10, 20] | Plant response rating, Velvetleaf [11, 19] | Plant response rating, Velvetleaf [11, 20] | Plant response rating, Johnsongrass [12, 20]
70: Plant response rating, Windgrass [1, 18]
98: Plant response rating, Soybean (soybean (Glycine max); [17]) | Plant response rating, Goosegrass [7, 18] | Plant response rating, Goosegrass [7, 19] | Plant response rating, Goosegrass [7, 20] | Plant response rating, Foxtail, Green [8, 19] | Plant response rating, Foxtail, Green [8, 20] | Plant response rating, Johnsongrass [12, 19]
90: Plant response rating, Chickweed [2, 18] | Plant response rating, Velvetleaf [11, 18]
25: Plant response rating, Canarygrass [4, 18] | Plant response rating, Nutsedge, Yellow [6, 20]
85: Plant response rating, Windgrass [1, 19] | Plant response rating, Foxtail, Green [8, 17]
30: Plant response rating, Barley [3, 18] | Plant response rating, Canarygrass [4, 19] | Plant response rating, Canarygrass [4, 20]
45: Plant response rating, Windgrass [1, 17]
60: Plant response rating, Johnsongrass [12, 17]
35: Plant response rating, Barley [3, 19]
20: Plant response rating, Canarygrass [4, 17] | Plant response rating, Nutsedge, Yellow [6, 17] | Plant response rating, Nutsedge, Yellow [6, 18] | Plant response rating, Nutsedge, Yellow [6, 19]
95: Plant response rating, Windgrass [1, 20] | Plant response rating, Goosegrass [7, 17] | Plant response rating, Foxtail, Green [8, 18] | Plant response rating, Corn (corn (Zea mays); [19]) | Plant response rating, Corn (corn (Zea mays); [20])
40: Plant response rating, Barley [3, 20]
10: Plant response rating, Barley [3, 17]

CC1(C)CC(=O)C(C(=O)c2cnc(-c3ccccc3)n(-c3ccccc3)c2=O)=C(O)C1 [Compound 225]
55: Plant response rating, Windgrass [1, 18] | Plant response rating, Canarygrass [4, 21]
90: Plant response rating, Pigweed [5, 17] | Plant response rating, Goosegrass [7, 18] | Plant response rating, Velvetleaf [11, 18]
95: Plant response rating, Chickweed [2, 22] | Plant response rating, Pigweed [5, 18] | Plant response rating, Soybean (soybean (Glycine max); [18]) | Plant response rating, Goosegrass [7, 22]
80: Plant response rating, Pigweed [5, 21] | Plant response rating, Goosegrass [7, 21] | Plant response rating, Foxtail, Giant [9, 18] | Plant response rating, Velvetleaf [11, 21] | Plant response rating, Velvetleaf [11, 17]
5: Plant response rating, Windgrass [1, 21] | Plant response rating, Barley [3, 21] | Plant response rating, Nutsedge, Yellow [6, 21]
85: Plant response rating, Canarygrass [4, 18] | Plant response rating, Canarygrass [4, 22] | Plant response rating, Soybean (soybean (Glycine max); [17]) | Plant response rating, Goosegrass [7, 17] | Plant response rating, Foxtail, Green [8, 21] | Plant response rating, Foxtail, Green [8, 17] | Plant response rating, Foxtail, Giant [9, 22] | Plant response rating, Lambsquarters [10, 21] | Plant response rating, Lambsquarters [10, 17] | Plant response rating, Lambsquarters [10, 18]
60: Plant response rating, Canarygrass [4, 17] | Plant response rating, Johnsongrass [12, 17]
20: Plant response rating, Barley [3, 17] | Plant response rating, Johnsongrass [12, 21]
40: Plant response rating, Chickweed [2, 18] | Plant response rating, Barley [3, 22] | Plant response rating, Corn (corn (Zea mays); [17])
35: Plant response rating, Barley [3, 18]
25: Plant response rating, Chickweed [2, 17] | Plant response rating, Nutsedge, Yellow [6, 18] | Plant response rating, Nutsedge, Yellow [6, 22]
75: Plant response rating, Foxtail, Giant [9, 21] | Plant response rating, Foxtail, Giant [9, 17] | Plant response rating, Johnsongrass [12, 18] | Plant response rating, Johnsongrass [12, 22]
10: Plant response rating, Nutsedge, Yellow [6, 17] | Plant response rating, Corn (corn (Zea mays); [21])
65: Plant response rating, Soybean (soybean (Glycine max); [21])
15: Plant response rating, Chickweed [2, 21]
50: Plant response rating, Windgrass [1, 17] | Plant response rating, Corn (corn (Zea mays); [18])
98: Plant response rating, Foxtail, Green [8, 18] | Plant response rating, Foxtail, Green [8, 22] | Plant response rating, Lambsquarters [10, 22]
70: Plant response rating, Corn (corn (Zea mays); [22])

Source: patent US8952024B2, “Herbicidal pyrimidone derivatives” (E I du Pont de Nemours and Company, priority 2009, dated 2015)
